This is an account of results in paper PMC5365662, “A Short Double-Stapled Peptide Inhibits Respiratory Syncytial Virus Entry and Spreading” (Antimicrobial Agents and Chemotherapy, 2017).

SMILES strings stand for the structures. Bridge positions count the residues as written; N and C are the ends. Square brackets hold non-standard residues; d marks the D form. Peptide text beside a SMILES is read from it. R8 = C=CCCCCCC[C@@](C)(N)C(=O)O; S5 = C=CCCC[C@](C)(N)C(=O)O

The target of series [1] is 5HB, a recombinant protein containing 3 HR1 domains covalently attached to 2 HR2 domains. The following applies: competition with fluorescently labeled T108 probe (2 nM), 5HB 50 nM, 10 min preincubation + 30 min room temperature, duplicates. From the text: The RSV HR2 region (residues 476 to 524) is a 49-amino-acid sequence that has been extensively characterized (Fig. 1). HR2 is a largely unstructured peptide in aqueous solution folding into an α-helix upon binding to trimeric HR1 coiled coils ([20]). […] We reduced HR2 (aa 483 to 516) into three short overlapping subdomains (subdomains 1 to 3) (Fig. 1). These peptides were scanned for various stapling combinations. […] Far-UV circular dichroism (CD) spectropolarimetry was used to investigate the effect of stapling on the α-helical content of the peptides. […] To assess the propensity of the stapled peptides to hinder the formation of the postfusion six-helix bundle required for viral cell entry, we used a 5-helix bundle (5HB) biochemical fluorescence polarization (FP) competition assay as previously described ([21], [22]).
The coding sequence of 5HB was designed as described previously and de novo synthesized by Genscript ([21]). The HR1 (aa 126 to 182) and HR2 (aa 476 to 524) coding sequences from wild-type RSV A2 strain F ([36]) were codon optimized for overexpression in Escherichia coli and cloned at NdeI/BamHI restriction sites of pET-15b to generate the expression plasmid for 5HB. The 5HB expression construct was transformed into Escherichia coli BL21(DE3). Cells were grown at 37°C to an optical density at 600 nm of 0.8 followed by induction with isopropyl-1-thio-β-D-galactopyranoside at a final concentration of 0.5 mM for 12 to 15 h. Cells were harvested by centrifugation, washed twice with PBS, and resuspended in 20 ml of PBS (pH 7.4), 500 mM NaCl, and 1% Triton X-100 supplemented with complete protease inhibitor. Cell suspensions were disrupted by sonication. Cell debris was removed through ultracentrifugation at 18,000 × g for 1 h at 4°C, and clarified cell lysate was mixed with 1 ml of nickel-nitrilotriacetic acid (Ni-NTA) agarose beads (Qiagen) preequilibrated with 20 ml of lysis buffer. The suspension was agitated for 1 h at 4°C and loaded onto a 5-ml polypropylene column (Qiagen). The column was washed twice with 8 ml of PBS (pH 7.4), 500 mM NaCl, 1% Triton X-100, and 100 mM imidazole. Proteins were eluted with 5 × 500 μl of a buffer containing PBS (pH 7.4), 300 mM imidazole, and 500 mM NaCl. The imidazole was removed by dialysis, and protein purity was assessed by SDS-polyacrylamide gel electrophoresis followed by Coomassie blue staining. Protein concentration was determined with the Qubit 2.0 Fluorometer (Life Technologies).
The T108 ([12]) peptide probe was synthesized by standard SPPS procedures using HCTU as a coupling reagent as described above. A 10-μl volume of recombinant 5HB protein in FP buffer (20 mM PBS [pH 7.4], 500 mM NaCl, 0.01% [vol/vol] Tween 20, and 0.05 mg/ml bovine gamma globulin) was preincubated for 10 min at room temperature with 10 μl of the appropriate concentration of the inhibitor, after which 10 μl of fluorescein isothiocyanate (FITC)-T106 was added and further incubated for 30 min at room temperature. The final concentrations of protein and probe were 50 nM and 2 nM, respectively. The fluorescence polarization assay was performed in 384-well plates using a Spectramax Paradigm (Molecular Devices), using excitation and emission wavelengths of 485 nm and 535 nm, respectively. The acquisition time was 700 ms, and the read height was 1 mm. All experiments were performed in duplicate. […] In order to ensure robust fitting for some fits, r0 was kept constant at the value measured for the free tracer in buffer.

Series [2] is described as follows: circular dichroism. The following applies: 10 mM phosphate; pH 7.5; 25 °C; 50 uM.
The test system of series [3] is rHRSV-mCherry in HEp-2 cells. Briefly: rHRSV-mCherry inhibition assay. It counts as cell-based, human respiratory syncytial virus. The settings on record: Table 3 (Ala scan); HEp-2 cells, rHRSV-mCherry MOI 0.2, 2-fold serial dilutions (11 dilutions), duplicate; ± SD of fit. On the procedure:
To measure the inhibitory activity of the peptide, the mCherry red fluorescence was quantified 48 h postinfection (p.i.).
Viral replication was quantified by measuring the mCherry fluorescence at 48 h p.i. and normalized based on the fluorescence of infected and untreated cells. (B) Cytotoxicity assay. HEp-2 cells were incubated in the presence of serial dilutions of peptides, and cell survival was quantified using the CellTiter-Glo Luminescent cell viability assay 24 h after the addition of the peptides. The signal was normalized based on the luminescence obtained for untreated cells. Error bars are standard deviations from duplicates.
HEp-2 cells were seeded at 5 × 10^4 cells per well in a 96-well plate the day before the infection. Peptides were 2-fold serially diluted in dimethyl sulfoxide (DMSO) (11 dilutions) and then further diluted in EMEM without phenol red and preincubated for 15 to 20 min with rHRSV-mCherry ([24]) at a final dilution with an MOI of 0.2 ([24]). The cells were incubated with the virus-peptide mixtures for a period of 1.5 to 2 h. The medium was then replaced by EMEM without phenol red containing 2% fetal bovine serum and the same concentration of peptide as the one that was used during the infection step. Plates were incubated 48 h at 37°C, and the mCherry fluorescence was measured using a spectrofluorometer (Tecan infinite M200PRO) with excitation and emission wavelengths of 580 and 620 nm, respectively. Relative fluorescence was normalized by the fluorescence of nontreated infected cells. Noninfected HEp-2 cells were used as standards for fluorescence background levels. Each experiment was performed in duplicate and repeated at least twice. The resulting inhibition curves were fitted in Igor Pro as described above.

`CC[C@H](C)[C@@H]1NC(=O)[C@H](Cc2ccccc2)NC(=O)[C@](C)(NC(=O)[C@H](CC(C)C)NC(=O)[C@H](CO)NC(=O)[C@H](CCC(N)=O)NC(=O)[C@H](CCC(=O)O)NC(C)=O)CCCCCCC=CCCC[C@@](C)(C(=O)N[C@@H](CC(C)C)C(=O)N[C@@H](CC(C)C)C(=O)N[C@@H](Cc2c[nH]cn2)C(=O)N[C@@H](CC(N)=O)C(=O)N[C@H](C(N)=O)C(C)C)NC(=O)[C@H](CC(=O)O)NC(=O)[C@H](CO)NC(=O)[C@H](CCCCN)NC(=O)[C@H](CCCNC(=N)N)NC1=O` [Peptide 3e] (Ac-EQSL[R8]FIRKSD[S5]LLHNV-NH2; staple 5-12): the Kd in series [1] was determined as 71000 ± 34000 nM. The helicity in series [2] was found to be 17.5%.
On to `CC[C@H](C)[C@H](NC(=O)[C@H](CO)NC(=O)[C@H](C)NC(=O)[C@H](CC(=O)O)NC(=O)[C@H](Cc1ccccc1)NC(=O)[C@H](CCC(=O)O)NC(=O)[C@H](CC(=O)O)NC(=O)[C@H](CO)NC(=O)[C@@H]1CCCN1C(=O)[C@H](Cc1ccccc1)NC(=O)[C@H](CCC(=O)O)NC(C)=O)C(=O)N[C@]1(C)CCCCCCC=CCCC[C@@](C)(C(N)=O)NC(=O)[C@H]([C@@H](C)CC)NC(=O)[C@H](CCCCN)NC(=O)[C@H](CCC(=O)O)NC(=O)[C@H](CC(N)=O)NC(=O)[C@H](C(C)C)NC(=O)[C@H](CCC(N)=O)NC1=O` [Peptide 1c] (Ac-EFPSDEFDASI[R8]QVNEKI[S5]-NH2; staple 12-19), for which the Kd in series [1] was 221000 ± 33000 nM. In addition, the helicity in series [2] was 24.5%.
Taken in the same sequence, the figures for `CC[C@H](C)[C@H](NC(=O)[C@H](Cc1ccccc1)NC(=O)[C@H](C)NC(=O)[C@H](CC(C)C)NC(=O)[C@H](CO)NC(=O)[C@H](CCC(N)=O)NC(=O)[C@H](CCC(=O)O)NC(C)=O)C(=O)N[C@@H](CCCNC(=N)N)C(=O)N[C@@H](CCCCN)C(=O)N[C@@H](CO)C(=O)N[C@@H](CC(=O)O)C(=O)N[C@@]1(C)CCCC=CCCC[C@@](C)(C(=O)N[C@H](C(N)=O)C(C)C)NC(=O)[C@H](Cc2c[nH]cn2)NC(=O)[C@H](CC(C)C)NC(=O)[C@H](CC(C)C)NC1=O` [Peptide 3c] (Ac-EQSLAFIRKSD[S5]LLH[S5]V-NH2; staple 12-16) were greater than 216000 nM and 18.7%.
On to `CC[C@H](C)[C@H](NC(=O)[C@H](CCCCN)NC(=O)[C@H](CCC(=O)O)NC(=O)[C@H](CC(N)=O)NC(=O)[C@@H](NC(=O)[C@H](CCC(N)=O)NC(=O)[C@H](CO)NC(=O)[C@@H](NC(=O)[C@H](CO)NC(=O)[C@H](C)NC(=O)[C@H](CC(=O)O)NC(=O)[C@H](Cc1ccccc1)NC(=O)[C@H](CCC(=O)O)NC(=O)[C@H](CC(=O)O)NC(=O)[C@H](CO)NC(=O)[C@@H]1CCCN1C(=O)[C@H](Cc1ccccc1)NC(=O)[C@H](CCC(=O)O)NC(C)=O)[C@@H](C)CC)C(C)C)C(=O)N[C@@H](CC(N)=O)C(N)=O` [Peptide 1] (Ac-EFPSDEFDASISQVNEKIN-NH2), for which the Kd in series [1] amounted to 2200 ± 500 nM.
Take `CC[C@H](C)[C@H](NC(=O)[C@H](CCCCN)NC(=O)[C@H](C)NC(C)=O)C(=O)N[C@@]1(C)CCCC=CCCC[C@@](C)(C(=O)N[C@@H](Cc2ccccc2)C(=O)N[C@H](C(=O)N[C@@]2(C)CCCC=CCCC[C@@](C)(C(=O)N[C@@H](CC(C)C)C(=O)N[C@@H](CC(C)C)C(=O)N[C@@H](Cc3c[nH]cn3)C(=O)N[C@@H](CC(N)=O)C(=O)N[C@H](C(N)=O)C(C)C)NC(=O)[C@H](CC(=O)O)NC(=O)[C@H](CO)NC(=O)[C@H](CCCCN)NC2=O)[C@@H](C)CC)NC(=O)[C@H](CC(C)C)NC(=O)[C@H](CO)NC(=O)[C@H](CCC(N)=O)NC1=O` [Peptide E497A] (Ac-AKI[S5]QSL[S5]FI[S5]KSD[S5]LLHNV-NH2; staple 4-8, 11-15): in series [3], the half-maximal effective concentration (EC50) came to 1160 ± 80 nM. The molecule also registered a helicity in series [2] of 38%.
Turning to `CC[C@H](C)[C@H](NC(=O)[C@H](C)NC(=O)[C@H](CCC(=O)O)NC(C)=O)C(=O)N[C@@]1(C)CCCC=CCCC[C@@](C)(C(=O)N[C@@H](Cc2ccccc2)C(=O)N[C@H](C(=O)N[C@@]2(C)CCCC=CCCC[C@@](C)(C(=O)N[C@@H](CC(C)C)C(=O)N[C@@H](CC(C)C)C(=O)N[C@@H](Cc3c[nH]cn3)C(=O)N[C@@H](CC(N)=O)C(=O)N[C@H](C(N)=O)C(C)C)NC(=O)[C@H](CC(=O)O)NC(=O)[C@H](CO)NC(=O)[C@H](CCCCN)NC2=O)[C@@H](C)CC)NC(=O)[C@H](CC(C)C)NC(=O)[C@H](CO)NC(=O)[C@H](CCC(N)=O)NC1=O` [Peptide K498A] (Ac-EAI[S5]QSL[S5]FI[S5]KSD[S5]LLHNV-NH2; staple 4-8, 11-15), the EC50 in series [3] was 600 ± 20 nM. The molecule further yielded a helicity in series [2] of 42%.
Taken in the same sequence, the figures for `CC[C@H](C)[C@H](NC(=O)[C@H](CCCCN)NC(=O)[C@H](CCC(=O)O)NC(C)=O)C(=O)N[C@@]1(C)CCCC=CCCC[C@@](C)(C(=O)N[C@@H](Cc2ccccc2)C(=O)N[C@H](C(=O)N[C@@]2(C)CCCC=CCCC[C@@](C)(C(=O)N[C@@H](CC(C)C)C(=O)N[C@@H](CC(C)C)C(=O)N[C@@H](Cc3c[nH]cn3)C(=O)N[C@@H](CC(N)=O)C(=O)N[C@@H](C)C(N)=O)NC(=O)[C@H](CC(=O)O)NC(=O)[C@H](CO)NC(=O)[C@H](CCCCN)NC2=O)[C@@H](C)CC)NC(=O)[C@H](CC(C)C)NC(=O)[C@H](CO)NC(=O)[C@H](CCC(N)=O)NC1=O` [Peptide V516A] (Ac-EKI[S5]QSL[S5]FI[S5]KSD[S5]LLHNA-NH2; staple 4-8, 11-15) were 600 ± 30 nM and 49%.
As for `CC[C@H](C)[C@H](NC(=O)[C@H](CCCCN)NC(=O)[C@H](CCC(=O)O)NC(C)=O)C(=O)N[C@@]1(C)CCCC=CCCC[C@@](C)(C(=O)N[C@@H](Cc2ccccc2)C(=O)N[C@H](C(=O)N[C@@]2(C)CCCC=CCCC[C@@](C)(C(=O)N[C@@H](CC(C)C)C(=O)N[C@@H](CC(C)C)C(=O)N[C@@H](Cc3c[nH]cn3)C(=O)N[C@@H](CC(N)=O)C(=O)N[C@H](C(N)=O)C(C)C)NC(=O)[C@H](CC(=O)O)NC(=O)[C@H](CO)NC(=O)[C@H](CCCCN)NC2=O)[C@@H](C)CC)NC(=O)[C@H](CC(C)C)NC(=O)[C@H](C)NC(=O)[C@H](CCC(N)=O)NC1=O` [Peptide S502A] (Ac-EKI[S5]QAL[S5]FI[S5]KSD[S5]LLHNV-NH2; staple 4-8, 11-15), the EC50 in series [3] was 660 ± 260 nM. Also, the helicity in series [2] was 15%.
